This note sets out measurements from PubChem BioAssay (NCI).

A word on the TGI: it is the concentration at which net growth stops. A low value points to more potent growth arrest. What is called GI50 is the concentration that inhibits growth by half.

Several values for one entry are separate records, joined by “and”; a condition that tells them apart may be missing. Equal values may be shown once.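 Interpolation was linear, between the two tested concentrations surrounding the appropriate level; five concentrations were tested over 48 hours in 96-well plates. GI50 = concentration required for 50% inhibition of growth. Definition used: TGI = concentration required for complete inhibition of growth.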

Some test systems named below: 786-0 renal; MOLT-4 leukemia; SK-MEL-5 melanoma; RPMI-8226 leukemia; NCI-H226 lung; A498 renal; HOP-92 NSCLC; OVCAR-5 ovarian; CAKI-1 renal; MALME-3M melanoma; ACHN renal; LOX IMVI melanoma; MDA-MB-231 breast; HOP-62 NSCLC; U251 CNS; COLO 205 colon; IGROV1 ovarian.
Holding throughout (test): DTP human tumour cell line panel, 48 h

Turning to `COC(=O)[C@H](Cc1ccccc1)NC(=O)N(CCC#N)CCCCN(CCC#N)C(=O)N[C@@H](Cc1ccccc1)C(=O)OC`, the concentration for total growth inhibition (TGI) in the experiment on 786-0 renal, in the experiment with MOLT-4 leukemia, in the experiment with SK-MEL-5 melanoma, in the experiment on RPMI-8226 leukemia, with NCI-H226 lung and in the experiment with A498 renal was greater than 100 µM in each case. Besides, the TGI with HOP-92 NSCLC, in the experiment on OVCAR-5 ovarian, in the experiment with CAKI-1 renal, with MALME-3M melanoma, with ACHN renal and in the experiment with LOX IMVI melanoma was greater than 100 µM in each case. In addition, the total growth inhibition concentration (TGI) with MDA-MB-231 breast, in the experiment on HOP-62 NSCLC, with U251 CNS and with COLO 205 colon was greater than 100 µM in each case.
Consider `c1ccc2c(c1)nn1c3ccc4nonc4c3[n-][n+]21`, for which the TGI in the experiment on 786-0 renal, in the experiment with MOLT-4 leukemia, in the experiment on SK-MEL-5 melanoma, with RPMI-8226 leukemia, in the experiment on NCI-H226 lung and in the experiment on A498 renal was greater than 100 µM in each case. For the same molecule, the TGI in the experiment with IGROV1 ovarian, with HOP-92 NSCLC, in the experiment with OVCAR-5 ovarian, in the experiment with CAKI-1 renal, with MALME-3M melanoma and in the experiment with ACHN renal was greater than 100 µM in each case. The TGI in the experiment with LOX IMVI melanoma, in the experiment on MDA-MB-231 breast, in the experiment on HOP-62 NSCLC, in the experiment with U251 CNS and in the experiment on COLO 205 colon was greater than 100 µM each time.
For `Cc1cccc(NC(=O)O/N=C(\Cl)C(C)C)c1`, the TGI turned out to be 4.12 µM with 786-0 renal; 5.63 µM in the experiment with MOLT-4 leukemia; 32.9 µM with SK-MEL-5 melanoma; 10.5 µM with RPMI-8226 leukemia; 33.5 µM in the experiment on NCI-H226 lung; 34.4 µM in the experiment on A498 renal. For the same molecule, the concentration for total growth inhibition (TGI) was 33.8 µM in the experiment with IGROV1 ovarian; 3.14 µM with HOP-92 NSCLC; 35.8 µM with OVCAR-5 ovarian; 3.17 µM in the experiment with CAKI-1 renal; 5.29 µM in the experiment on MALME-3M melanoma; 3.94 µM in the experiment with ACHN renal. The TGI stood at 3.67 µM with LOX IMVI melanoma; 33.4 µM in the experiment on MDA-MB-231 breast; 34.5 µM with HOP-62 NSCLC; 43.2 µM in the experiment on U251 CNS; 3.76 µM in the experiment on COLO 205 colon.
On to `CCc1c2cc(OC)c(OC)cc2cc2c3cc(OC)c(OC)cc3cc[n+]12` (tested in a mixture with another compound), for which the TGI in the experiment on 786-0 renal was greater than 73 µM; in the experiment on MOLT-4 leukemia, greater than 100 µM; in the experiment on SK-MEL-5 melanoma, 48.9 µM; with RPMI-8226 leukemia, greater than 47.3 µM; with NCI-H226 lung, 39.2 µM; in the experiment with A498 renal, greater than 71.8 µM. The TGI was greater than 85.3 µM in the experiment on IGROV1 ovarian; greater than 80 µM with HOP-92 NSCLC; greater than 100 µM with OVCAR-5 ovarian; greater than 73.4 µM in the experiment on CAKI-1 renal; 44.2 µM with MALME-3M melanoma; greater than 71.2 µM in the experiment on ACHN renal. The TGI is greater than 63 µM with LOX IMVI melanoma; 48.8 µM in the experiment on MDA-MB-231 breast; greater than 95.4 µM in the experiment on HOP-62 NSCLC; 57.2 µM with U251 CNS; 22.8 µM in the experiment on COLO 205 colon.
Regarding `O=C1CCC(=O)N1CNc1ccc2c(c1)S(=O)(=O)c1ccccc1O2`, the concentration for total growth inhibition (TGI) with 786-0 renal, in the experiment with MOLT-4 leukemia, in the experiment on SK-MEL-5 melanoma, with RPMI-8226 leukemia, in the experiment with NCI-H226 lung and in the experiment on A498 renal was greater than 100 µM throughout. In addition, the concentration for total growth inhibition (TGI) in the experiment on IGROV1 ovarian, in the experiment with HOP-92 NSCLC, in the experiment with OVCAR-5 ovarian, with CAKI-1 renal, in the experiment on MALME-3M melanoma and in the experiment with ACHN renal was greater than 100 µM each time. Moreover, the TGI in the experiment with LOX IMVI melanoma, in the experiment on MDA-MB-231 breast, in the experiment on HOP-62 NSCLC, in the experiment with U251 CNS and with COLO 205 colon was greater than 100 µM throughout.
`Cc1ccc(/C=C2/N=C(N/N=C\C(O)C(O)C(O)CO)NC2=O)cc1` (stereo unspecified): the TGI in the experiment on 786-0 renal, in the experiment on MOLT-4 leukemia, in the experiment with SK-MEL-5 melanoma, with RPMI-8226 leukemia, in the experiment on NCI-H226 lung and in the experiment on A498 renal was greater than 100 µM in each case. The TGI in the experiment with IGROV1 ovarian, in the experiment on HOP-92 NSCLC, with OVCAR-5 ovarian, with CAKI-1 renal, in the experiment with MALME-3M melanoma and in the experiment with ACHN renal was greater than 100 µM each time. The concentration for total growth inhibition (TGI) in the experiment with LOX IMVI melanoma, in the experiment on MDA-MB-231 breast, in the experiment with HOP-62 NSCLC, with U251 CNS and in the experiment with COLO 205 colon was greater than 100 µM each time. For the same molecule, the GI50 in the experiment on MOLT-4 leukemia was 46.2 µM; with MALME-3M melanoma it was > 100 µM and 42.1 µM.
Take `O=C(CC(O)(C(F)(F)F)C(F)(F)Cl)CC(O)(C(F)(F)F)C(F)(F)Cl` (stereo unspecified): the TGI was greater than 10 µM with 786-0 renal; greater than 10 µM in the experiment on MOLT-4 leukemia; 4.35 µM in the experiment with SK-MEL-5 melanoma; greater than 10 µM in the experiment on RPMI-8226 leukemia; 6.92 µM in the experiment on NCI-H226 lung; 9.22 µM in the experiment on A498 renal. The TGI in the experiment with IGROV1 ovarian was greater than 10 µM; in the experiment on HOP-92 NSCLC, 4.57 µM; in the experiment with CAKI-1 renal, greater than 10 µM; with MALME-3M melanoma, 6.34 µM; in the experiment on ACHN renal, greater than 10 µM; in the experiment on LOX IMVI melanoma, 7.34 µM. For the same molecule, the TGI in the experiment with MDA-MB-231 breast is 5.43 µM; with HOP-62 NSCLC it was 5.85 µM; with U251 CNS, 8.39 µM; with COLO 205 colon, 3.07 µM.
With `O=C1c2c(Br)sc(Br)c2[C@@H](Cl)[C@H]1Cl`, the TGI was 52.5 µM in the experiment with 786-0 renal; greater than 100 µM in the experiment with MOLT-4 leukemia; 31.1 µM in the experiment on SK-MEL-5 melanoma; 54.6 µM in the experiment on RPMI-8226 leukemia; 36.4 µM in the experiment with NCI-H226 lung; greater than 100 µM in the experiment on A498 renal. Moreover, the TGI came to 42 µM in the experiment on IGROV1 ovarian; 42.5 µM in the experiment on HOP-92 NSCLC; 43 µM in the experiment with OVCAR-5 ovarian; 38.8 µM in the experiment on CAKI-1 renal; 82.7 µM with MALME-3M melanoma; 37.4 µM in the experiment with ACHN renal. Besides, the TGI in the experiment on LOX IMVI melanoma was 51 µM; in the experiment with MDA-MB-231 breast, 36.8 µM; in the experiment with HOP-62 NSCLC, 35.5 µM; in the experiment with U251 CNS, 34.8 µM; in the experiment with COLO 205 colon it was 31.8 µM.
